How the values were obtained:
PDE5 (human recombinant) = PDE5 (human recombinant) (Homo sapiens, UniProt O76074); assay: PDE5 inhibition (SPA or modified FP assay); type: biochemical; settings: n = 1; accuracy ±about 0.5 log unit; read-out: PDE5 pIC50 (converted)
Excerpt: Human recombinant PDE5 is disclosed in K. Loughney et al., “Isolation and characterisation of cDNAs encoding PDE5A, a human cGMP-binding, cGMP-specific 3′,5′-cyclic nucleotide phosphodiesterase”, Gene, 1998, 216, 139-147.
The ability of compounds to inhibit catalytic activity at PDE4B or 4D (human recombinant), PDE3 (from bovine aorta), PDE5 (human recombinant) or PDE6 (from bovine retina) can optionally be determined by Scintillation Proximity Assay (SPA) in a 96-well format.
Test compounds (as a solution in DMSO, preferably about 2 microliters (ul) volume of DMSO solution) are preincubated at ambient temperature (room temperature, e.g. 19-23° C.) in Wallac Isoplates (code 1450-514) with PDE enzyme in 50 mM Tris-HCl buffer pH 7.5, 8.3 mM MgCl2, 1.7 mM EGTA, 0.05% (w/v) bovine serum albumin for 10-30 minutes (usually 30 minutes). The enzyme concentration is adjusted so that no more than 20% hydrolysis of the substrate defined below occurs in control wells without compound, during the incubation. […] Bound radioactive product is measured using a WALLAC TRILUX 1450 Microbeta scintillation counter. […] Curves are analysed using ActivityBase and XLfit (ID Business Solutions Limited, 2 Ocean Court, Surrey Research Park, Guildford, Surrey GU2 7QB, United Kingdom) Results are expressed as pIC50 values. […]

[1] = molecular target: PDE4D (human recombinant) (Homo sapiens, UniProt Q08499); assay: PDE4D inhibition, IMAP Fluorescence Polarisation (FP) assay; type: biochemical; settings: n = 2; accuracy ±about 0.5 log unit; read-out: PDE4D pIC50 (FP assay, mean value) (converted)
Excerpt: Human recombinant PDE4D (HSPDE4D3A) is disclosed in P. A. Baecker et al., “Isolation of a cDNA encoding a human rolipram-sensitive cyclic AMP phoshodiesterase (PDE IVD)”, Gene, 1994, 138, 253-256.
The ability of compounds to inhibit catalytic activity at PDE4B (human recombinant) or PDE4D (human recombinant) can optionally be determined by IMAP Fluorescence Polarisation (FP) assay (IMAP Explorer kit, available from Molecular Devices Corporation, Sunnydale, Calif., USA; Molecular Devices code: R8062) in a 384-well format.
The IMAP FP assay is able to measure PDE activity in an homogenous, non-radioactive assay format. […] Binding of Fl-AMP product to the beads (coated with the immobilised trivalent cations) slows the rotation of the bound Fl-AMP and leads to an increase in the fluorescence polarisation ratio of parallel to perpendicular light. […]
Test compounds (small volume, e.g. ca. 0.5 to 1 microliters (ul), preferably ca. 0.5 ul, of solution in DMSO) are preincubated at ambient temperature (room temperature, e.g. 19-23° C.) in black 384-well microtitre plates (supplier: NUNC, code 262260) with PDE enzyme in 10 mM Tris-HCl buffer pH 7.2, 10 mM MgCl2, 0.1% (w/v) bovine serum albumin, and 0.05% NaN3 for 10-30 minutes. […] The Fluorescence Polarisation (FP) ratio of parallel to perpendicular light is measured using an Analyst™ plate reader (from Molecular Devices Corporation). […]

[2] = Systemic exposure after oral administration to rat(s); type: in vivo; settings: about 1 mg/kg oral, free base, 10% DMSO and 90% PEG200/water (70:30), preliminary tests
Excerpt: Although the compound of formula (I) or salt thereof may be administered orally, oral administration is not presently thought to be a preferred route of administration.

PDE4D (human recombinant), sequence (Q08499 1-673 isoform Q08499-2): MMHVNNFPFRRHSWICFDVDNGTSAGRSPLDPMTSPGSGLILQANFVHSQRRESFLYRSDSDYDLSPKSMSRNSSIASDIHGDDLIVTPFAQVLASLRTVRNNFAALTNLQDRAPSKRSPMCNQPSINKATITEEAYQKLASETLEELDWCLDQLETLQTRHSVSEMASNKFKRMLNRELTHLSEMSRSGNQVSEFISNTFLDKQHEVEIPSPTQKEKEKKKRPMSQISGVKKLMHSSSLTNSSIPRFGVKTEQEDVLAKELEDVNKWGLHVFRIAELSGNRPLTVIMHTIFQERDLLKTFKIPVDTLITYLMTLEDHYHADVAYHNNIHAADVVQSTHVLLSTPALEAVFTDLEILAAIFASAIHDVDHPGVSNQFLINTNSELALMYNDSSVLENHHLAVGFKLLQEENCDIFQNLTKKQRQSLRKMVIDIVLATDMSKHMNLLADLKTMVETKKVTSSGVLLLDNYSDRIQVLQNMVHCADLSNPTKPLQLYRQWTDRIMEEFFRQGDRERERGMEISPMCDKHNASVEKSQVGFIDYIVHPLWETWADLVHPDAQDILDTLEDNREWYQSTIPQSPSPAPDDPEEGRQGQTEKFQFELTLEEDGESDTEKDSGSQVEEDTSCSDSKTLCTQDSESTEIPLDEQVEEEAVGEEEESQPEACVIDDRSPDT

CCn1ncc2c(NC3CCN(C(N)=O)CC3)c(C(=O)NCc3ccc(C)c(C)c3)cnc21 [compound of formula (I), 4-{[1-(aminocarbonyl)-4-piperidinyl]amino}-N-[(3,4-dimethylphenyl)methyl]-1-ethyl-1H-pyrazolo[3,4-b]pyridine-5-carboxamide]
IC50 (PDE5 (human recombinant)): 0.49 µM
IC50 [1]: 0.00055 µM
systemic exposure after oral administration [2]: low systemic exposure
